Patent US9945853B2, “Extracellular mitochondrial components for detecting inflammatory reactions and conditions” (UNIVERSITE LAVAL, priority 2013, dated 2018)

What was measured:
[1] = tested on: platelets; test: Platelet stimulation and release of freeMitos, mitoMPs and MPs (hs-FCM); type: cell-based, human; details: platelets stimulated 4 hours at room temperature, vs supernatant from resting platelets, n=4
Description: (§1) A forward scatter (FSC) coupled to a photomultiplier tube (PMT) “small particles option” (FSC-PMT) (rather than the usual diode) with a 488-nm solid state, 100-mW output blue laser (rather than the conventional 20 mW), a 633-nm HeNe, 20-mW output red laser, and a 405-nm solid state diode, 50-mW output violet laser were mounted on the BD FACS Canto II Special Order Research Product used for all our studies (BD Biosciences). The chosen parameters were optimal to detect particles from 100 to 3 500 nm simultaneously on the FSC-PMT.
(§2) Platelets were labeled with MitoTracker Deep Red™ and PKH67 Green Fluorescent Cell Linker as described above. Platelets were washed and then were left nonactivated or activated using heat-aggregated immunoglobulin (Ig)G (HA-IgG), 1 mg/mL; thrombin, 0.5 U/mL; collagen, 5 μg/mL; for 4 hours at room temperature. Platelets ([…]) were then diluted into […] phosphate-buffered saline (PBS) and analyzed by flow cytometry. For extracellular mitochondria release experiments, platelets were treated with cytochalasin B ([…]; Sigma-Aldrich), cytochalasin D ([…]; Sigma-Aldrich), cytochalasin E ([…]; Cayman Chemical), latrunculin A ([…]; Cayman Chemical), or nocodazole ([…]; Sigma-Aldrich). To process the data quantitatively, 100 000 polystyrene microspheres ([…] diameter; Polysciences) were added to each tube, and 1000 microspheres were acquired.

[2] = tested on: human neutrophils; test: NET quantification; type: cell-based
Protocol: Activated human neutrophils (5×10^6 cells/ml) were incubated in the presence of labeled mitochondria (5×10^5 mitochondria/ml, MitoTracker® Deep Red, 100 nm) and sPLA2-IIA (0.1 μg/ml) or diluent (PBS) for 2 h at 37° C. Cells were then fixed with 2% PFA and DNA staining was performed with Hoestch 33342 (1 μg/ml, Invitrogen). Cells were cytospinned on a slide at 500 RPM for 3 min. NET formation (%) was determined by the following equation: (NETs/PMN counted)*100. Preliminary experiments confirmed that mtDNA is readily distinguished from neutrophils NETs.

[3] = tested on: thrombin-activated platelets; test: Extracellular mitochondria release from thrombin-activated platelets with cytoskeleton inhibitors (hs-FCM); type: cell-based, human; details: addition of actin or tubulin polymerization inhibitors, n=4
Description: as §1, §2

[4] = tested on: human neutrophils; test: Stimulation of neutrophils for leukotriene generation (5-LO products, HPLC); type: cell-based; details: human neutrophils with extracellular mitochondria and sPLA2-IIA; pyrrophenone 100 nM
Protocol: Human neutrophils were primed and stimulated for leukotriene biosynthesis as previously described (Cloutier et al. 2013, Flamand et al. 2006). To evaluate sPLA2-IIA mediated release of arachidonic acid, cPLA2α inhibitor pyrrophenone (100 nM) was added 5 min before stimulation. Stimulation was initiated by the addition of 5 μl of pre-treated mitochondria, or control, to prime neutrophils. The reaction was stopped by the addition of 500 μl of cold MeOH:CH3CN (1:1) containing 12.5 ng of prostaglandin B2 as internal standard. Samples were then processed and analyzed by reversed-phase high performance liquid chromatography using on-line extraction as previously described (Borgeat et al. 1990).

[5] = tested on: mitochondrial membranes; test: Mass spectrometry of lysophospholipids and fatty acids released from mitochondrial membranes by sPLA2-IIA; type: biochemical, mouse; details: 0.1 and 1 μg/ml sPLA2-IIA, 37° C., 0.5 and 6 h
Protocol: Mitochondria were incubated in the presence of 0.1 μg/ml and 1 μg/ml of human recombinant sPLA2-IIA at 37° C. for 0.5 and 6 h. Mitochondria were also incubated in the absence of sPLA2-IIA to determine the content of basal free fatty acid. Following incubation, the reaction was stopped with the addition of 20 mM of EGTA. Lysophospholipid analysis by mass spectrometry was carried out as described (Bollinger et al. 2010). Samples of sPLA2-IIA-treated mitochondria (200 μl) was mixed with 800 μl of chloroform/methanol (2/1) followed by the addition of 15 μl of internal standard mixture (Bollinger et al. 2010 B). Samples were extracted as described and analyzed by combined liquid chromatography/tandem mass spectrometry (Bollinger et al. 2010). Fatty acids were analyzed by conversion to their AMPP amide derivatives and then analyzed by combined liquid chromatography/tandem mass spectrometry.

[6] = tested on: mitochondria; test: sPLA2-IIA binding to mitochondria (flow cytometry, anti-TOM22 co-elution and immunoblot); design: species or system mouse; details: 30 min on ice, 5 mM CaCl2
Protocol: Mitochondria (10^6) from mouse liver were labeled with 100 nM of MitoTracker® Deep Red and incubated with 10 ng of sPLA2-IIA Alexa Fluor 488 (final volume 10 μl) in HBSS with 5 mM of CaCl2 for 30 min on ice. Samples were diluted and the presence of sPLA2-IIA Alexa Fluor 488 on fluorescent mitochondria was analyzed by flow cytometry.
Interaction between mitochondria and sPLA2-IIA was also assessed by immunolabeling and co-elution. Unstained mouse liver mitochondria (10^7) in HBSS with 5 mM CaCl2 were incubated with 250 ng of sPLA2-IIA (final volume 100 μl) for 30 min on ice. Anti-TOM22 microbeads labeling was then performed as described above and processed on a magnet for mitochondria isolation. Mitochondria were then pelleted and lysed in 1× lysis buffer. Samples were electrophoresed, transferred onto membranes and incubated in 0.2% milk/TBS-Tween solution containing rabbit anti-sPLA2-IIA antibody (1/1000, Cayman Chemical) for 48 h at 4° C. The membrane was washed, treated with Peroxidase-AffiniPure anti-rabbit-IgG (Jackson ImmunoResearch) and reactive proteins were visualized by chemiluminescence (Perkin Elmer).

[7] = tested on: freshly isolated human neutrophil; test: Scanning electron microscopy of human neutrophils with mitochondria and sPLA2-IIA; type: cell-based; details: mitochondria with human neutrophils, 30-minute incubation with sPLA2-IIA; n=3
Protocol: (§3) Samples were fixed with 2.5% glutaraldehyde for at least 24 h then processed for standard dehydration. Briefly, samples were first washed (3×10 min) with sodium cacodylate buffer (0.1 M, pH 7.3) then fixed with osmium tetroxide (1% in sodium cacodylate buffer) for 90 min. Samples were washed again (3×10 min) in sodium cacodylate buffer and subsequently processed for alcohol dehydration steps (50, 70, 95 and 100% EtOH, 10 min each steps). Samples were then dipped in 100% EtOH for 40 and 10 min, and air-dried overnight. Samples were then coated with palladium and observed with a JEOL 6360LV scanning electron microscope (Tokyo, Japan).

[8] = tested on: C57BL/6N mice; test: Air pouch model, cytokine production; type: in vivo, mouse; details: injected into the air pouch of C57BL/6N mice, 4 hours; n=7
Protocol: Briefly, sterile air was subcutaneous injected on days 0 and 3. Tumor necrosis factor-α (50 ng) was injected into the pouch on day 6. On day 7, mitochondrial membrane hydrolysis products ([…] of 5×10^8 mitochondria treated with sPLA2-IIA), diluent (PBS), sPLA2-IIA, or mitochondria alone were injected in the air pouch. After 4 hours, the air pouch was washed with 1.2 mL PBS. Cytokines were quantified using the BD Cytometric Bead Array System (CBA) (BD Biosciences) by flow cytometry on a BD FACS Canto II and analyzed using FCAP Array Software v3.0.

[9] = tested on: mitochondria; test: Scanning electron microscopy of mitochondria incubated with sPLA2-IIA; design: species or system mouse; details: scanning electron micrographs
Protocol: as §3

[10] = tested on: mitochondria; test: Mitochondrial DNA release after incubation with sPLA2-IIA (Sytox Green); type: biochemical, mouse; details: 0.2 mg/mL, 30 minutes at 37° C., n=6
Protocol: Mitochondria were seeded at 5×10^8 mitochondria/mL (Tyrode Buffer, pH 7.4, +5 mM CaCl2) in a flat bottom well plate (Costar, Corning). Human recombinant sPLA2-IIA (5 μg/ml) or diluent (PBS) was added and samples were then incubated for 30 min at 37° C. Nucleic acid stain Sytox® Green (2.5 μM, Invitrogen) was added to the mix and incubated for 10 min at room temperature. Fluorescence was obtained with a Tecan apparatus. To calculate the percentage of mitochondrial DNA released in the milieu, Triton X-100 (0.1% PBS) lysis of an equivalent amount of mitochondria (5×10^8 mitochondria/ml) was performed, to determine the total amount of mitochondrial DNA present per well.

## CCCCCCCCCCCCCC(=O)O[C@@H]1[C@@H](C)[C@@]2(O)[C@@H](C=C(CO)C[C@]3(O)C(=O)C(C)=C[C@@H]23)[C@@H]2C(C)(C)[C@]12OC(C)=O [PMA, phorbol 12-myristate 13-acetate]
[1]
  release of extracellular freeMitos, mitoMPs and MPs: trigger the release

## CCCCC/C=C\C/C=C\C/C=C\C/C=C\CCCC(=O)O [arachidonic acid]
[2]; human neutrophils
  inducing NETosis (hydrolytic products derived from sPLA2-IIA activity): highly potent

## C=C1[C@@H](C)[C@H]2[C@H](Cc3ccccc3)NC(=O)[C@]23OC(=O)/C=C/[C@H](O)CCC[C@@H](C)C/C=C/[C@H]3[C@@H]1O [cytochalasin B]
[3]
  Mitochondrial release (freeMito, mitoMPs, MPs) from thrombin-activated platelets: significantly reduced

## C=C1[C@@H](C)[C@H]2[C@H](Cc3ccccc3)NC(=O)[C@]23[C@H](OC(C)=O)/C=C/[C@@](C)(O)C(=O)[C@@H](C)C/C=C/[C@H]3[C@@H]1O [cytochalasin D]
[3]
  Mitochondrial release (freeMito, mitoMPs, MPs) from thrombin-activated platelets: significantly reduced

## C[C@H]1C/C=C/[C@H]2[C@@H]3O[C@]3(C)[C@@H](C)[C@H]3[C@H](Cc4ccccc4)NC(=O)[C@]32OC(=O)O/C=C/[C@@](C)(O)C1=O [cytochalasin E]
[3]
  Mitochondrial release (freeMito, mitoMPs, MPs) from thrombin-activated platelets: significantly reduced

## C/C1=C/C(=O)O[C@@H]2C[C@@H](CC[C@H](C)/C=C\C=C\CC1)O[C@@](O)([C@@H]1CSC(=O)N1)C2 [latrunculin A]
[3]
  Mitochondrial release (freeMito, mitoMPs, MPs) from thrombin-activated platelets: significantly reduced

## O=C1NC(=O)/C(=C/c2ccc(C(=O)NC[C@@H]3C[C@@H](SC(c4ccccc4)(c4ccccc4)c4ccccc4)CN3C(=O)c3ccccc3C(=O)c3ccc(F)cc3F)cc2)S1 [pyrrophenone]
[4]
  LTB4 production (5-LO products) by neutrophils: takes place even in presence

## collagen
[1]
  release of extracellular freeMitos, mitoMPs and MPs: trigger the release

## thrombin
[1]
  release of extracellular freeMitos, mitoMPs and MPs: trigger the release

B1: sPLA2-IIA: human recombinant secreted phospholipase A2 group IIA (protein, UniProt P14555 21-144, looked up)
Phospholipase A2, membrane …: NLVNFHRMIKLTTGKEAALSYGFYGCHCGVGGRGSPKDATDRCCVTHDCCYKRLEKRGCGTKFLSYKFSNSGSRITCAKQDSCRSQLCECDKAAATCFARNKTTYNKKYQYYSNKHCRGSTPRC
[5]
  release of lysophospholipids and free fatty acids from mitochondria: release of various lysophospholipids and free fatty acids
[2]; human neutrophils with mitochondria, sPLA2-IIA 0.1 μg/ml, 2 h at 37° C.
  NET formation by mitochondria: significantly enhances
[4]
  LTB4 production (5-LO products) by neutrophils: copious amounts
[6]
  binding of sPLA2-IIA to mitochondria: binds mitochondria
[7]
  neutrophil structural change: 29.2±2.11%
[8]
  production of IL-1b and IL-6: modest cytokine production
[9]
  mitochondrial structural integrity: severely affects mitochondrial structural integrity
[10]
  mtDNA extrusion: amplified
